Key:
[1] = test system: T1, cb1a cell KARs (kainate receptors of cb1a Off bipolar cells); details: mean of n = 6 somas (Hill n 1.11); 35 µM GYKI 53655 blocks AMPA receptors; pH 7.4; 32-33 °C
T1 construct: gene GRIK1

[2] = test system: T1, cb1a cell KARs (kainate receptors of cb1a Off bipolar cells); details: desensitization by glutamate; supplement only
[3] = test system: T2, cone glutamate transporter (TBOA-sensitive; EAAT5 immunolabelled at cone terminal); details: read-out: steady state EC50
T2 construct: gene SLC1A7

- EC50 [1]: 1400 ± 160 µM
- EC50 [3]: 0.71 µM
SMILES: N[C@@H](CCC(=O)O)C(=O)O [glutamate]
- IC50 [2]: 30.4 ± 10.2 µM

— publication PMC10276006, “Mechanisms of simultaneous linear and nonlinear computations at the mammalian cone photoreceptor synapse” (Nature Communications, 2023)
